Data reported in the supplement of paper PMC10307832.

What was measured:
Assay in all cases: relative viability (nuclei count vs DMSO), 5 days (fraction); higher = more cells survive
kb NB 142-70 + Foretinib = compound: C1CSC2=C(C(=O)N1)SC3=C2C=C(C=C3)O [kb NB 142-70] + COc1cc2c(Oc3ccc(NC(=O)C4(C(=O)Nc5ccc(F)cc5)CC4)cc3F)ccnc2cc1OCCCN1CCOCC1 [Foretinib] (partner 0.25 µM)
Procedure, shortened: (§1)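 Lung cancer cell lines in 1536-well plates were dosed by pin tool the day after seeding, either with one drug alone or with a fixed anchor-drug dose plus five library-drug doses (not always all listed) in √10 steps. After 5 days, cells were fixed and their nuclei stained in one step (final 0.05% Triton X-100, 1% formaldehyde, 1 ug/ml Hoechst), then counted on 4× images. Relative viability is the nuclei count in treated wells divided by that in vehicle wells. Values are medians of duplicate plates.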

[1] = compound: NCC(=O)Nc1ccc(-n2nc(C(F)(F)F)cc2-c2ccc3c(ccc4ccccc43)c2)cc1 + COc1cccc2cc(-c3nc([C@H]4CC[C@H](C(=O)O)CC4)n4ncnc(N)c34)[nH]c12 [OSI-027] (partner 0.5 µM)
Procedure, shortened: as §1

[2] = compound: NCC(=O)Nc1ccc(-n2nc(C(F)(F)F)cc2-c2ccc3c(ccc4ccccc43)c2)cc1 + CS(=O)(=O)N1CCN(Cc2cc3nc(-c4cccc5[nH]ncc45)nc(N4CCOCC4)c3s2)CC1 [Pictilisib] (partner 1 µM)
Procedure, shortened: as §1

[3] = compound: NCC(=O)Nc1ccc(-n2nc(C(F)(F)F)cc2-c2ccc3c(ccc4ccccc43)c2)cc1 + O=C(c1cc(Cc2n[nH]c(=O)c3ccccc23)ccc1F)N1CCN(C(=O)C2CC2)CC1 [Olaparib] (partner 8 µM)
Procedure, shortened: as §1

| Cell Line | relative viability (kb NB 142-70 + Foretinib; first compound 0.1 µM) | relative viability (kb NB 142-70 + Foretinib; first compound 1 µM) | relative viability (kb NB 142-70 + Foretinib; first compound 3.162 µM) | relative viability ([1]; first compound 0.02 µM) | relative viability ([1]; first compound 0.06325 µM) | relative viability ([1]; first compound 0.2 µM) | relative viability ([1]; first compound 0.6325 µM) | relative viability ([1]; first compound 2 µM) | relative viability ([2]; first compound 0.02 µM) | relative viability ([2]; first compound 0.06325 µM) | relative viability ([2]; first compound 0.2 µM) | relative viability ([2]; first compound 0.6325 µM) | relative viability ([2]; first compound 2 µM) | relative viability ([3]; first compound 0.02 µM) | relative viability ([3]; first compound 0.06325 µM) | relative viability ([3]; first compound 0.2 µM) | relative viability ([3]; first compound 0.6325 µM) | relative viability ([3]; first compound 2 µM) |
| --- | --- | --- | --- | --- | --- | --- | --- | --- | --- | --- | --- | --- | --- | --- | --- | --- | --- | --- |
| LCLC-103H | 0.715 | 0.744 | 0.815 | 0.412 | 0.43 | 0.443 | 0.575 | 0.429 | 0.606 | 0.61 | 0.571 | 0.648 | 0.673 | 0.685 | 0.793 | 0.787 | 0.765 | 0.752 |
| LK-2 | 1.15 | 1.07 | 0.819 | 0.182 | 0.207 | 0.21 | 0.246 | 0.174 | 0.536 | 0.669 | 0.462 | 0.577 | 0.616 | 0.758 | 0.78 | 0.799 | 0.666 | 0.671 |
| LOU-NH91 | 0.898 | 0.889 | 0.829 | 0.752 | 0.737 | 0.711 | 0.716 | 0.735 | 0.497 | 0.622 | 0.49 | 0.476 | 0.537 | 0.967 | 0.959 | 0.933 | 0.922 | 0.995 |
| LU99A | 0.781 | 0.765 | 0.569 | 0.285 | 0.29 | 0.303 | 0.272 | 0.295 | 0.338 | 0.36 | 0.321 | 0.311 | 0.294 | 0.284 | 0.289 | 0.261 | 0.263 | 0.322 |
| LXF-289 | 0.973 | 1.01 | 0.813 | 0.67 | 0.801 | 0.787 | 0.819 | 0.713 | 0.868 | 0.583 | 0.762 | 0.753 | 0.798 | 1.05 | 1.11 | 1.03 | 1.04 | 1.07 |
| NCI-H23 | 1.06 | 0.819 | 0.642 | 0.576 | 0.664 | 0.809 | 0.608 | 0.531 | 0.436 | 0.511 | 0.557 | 0.489 | 0.424 | 0.33 | 0.442 | 0.364 | 0.329 | 0.336 |
| NCI-H322M | 0.891 | 1.04 | 1.04 | 0.532 | 0.536 | 0.556 | 0.546 | 0.566 | 0.516 | 0.515 | 0.521 | 0.523 | 0.483 | 0.865 | 0.759 | 0.782 | 0.802 | 0.794 |
| NCI-H358 | 0.57 | 0.521 | 0.101 | 0.749 | 0.842 | 0.84 | 0.711 | 0.834 | 0.43 | 0.309 | 0.322 | 0.383 | 0.341 | 0.613 | 0.58 | 0.632 | 0.636 | 0.606 |
| NCI-H441 | 0.939 | 1.15 | 0.459 | 0.647 | 0.675 | 0.613 | 0.551 | 0.631 | 0.469 | 0.441 | 0.469 | 0.366 | 0.575 | 0.546 | 0.58 | 0.52 | 0.493 | 0.598 |
| NCI-H460 | 0.951 | 1.07 | 0.985 | 0.583 | 0.642 | 0.696 | 0.587 | 0.675 | 0.406 | 0.409 | 0.343 | 0.382 | 0.203 | 0.368 | 0.41 | 0.458 | 0.354 | 0.446 |
| NCI-H520 | 0.718 | 0.866 | 0.655 | 0.238 | 0.265 | 0.296 | 0.243 | 0.234 | 0.351 | 0.265 | 0.323 | 0.277 | 0.277 | 0.404 | 0.285 | 0.377 | 0.339 | 0.334 |
| NCI-H596 | 0.887 | 0.866 | 0.89 | 0.731 | 0.865 | 0.83 | 0.727 | 0.799 | 0.412 | 0.458 | 0.425 | 0.404 | 0.407 | 0.627 | 0.77 | 0.739 | 0.714 | 0.658 |
| NCI-H647 | 1.28 | 1.28 | 1.24 | 0.494 | 0.681 | 0.67 | 0.573 | 0.773 |  | 0.479 | 0.548 | 0.406 | 0.496 | 0.593 | 0.573 | 0.657 | 0.486 | 0.483 |
| NCI-H650 | 1.02 | 1.06 | 0.851 | 0.508 | 0.524 | 0.541 | 0.443 | 0.524 | 0.843 | 0.913 | 1.05 | 0.782 | 0.948 | 0.395 | 0.415 | 0.421 | 0.399 | 0.396 |
| NCI-H661 | 0.996 | 1.02 | 1.01 | 0.681 | 0.691 | 0.724 | 0.673 | 0.715 | 0.453 | 0.389 | 0.357 | 0.325 | 0.407 | 0.773 | 0.731 | 0.763 | 0.713 | 0.73 |
| NCI-H727 | 1.06 | 0.969 | 1.15 | 0.533 | 0.504 | 0.579 | 0.694 | 0.737 | 0.427 | 0.45 | 0.406 | 0.362 | 0.533 | 0.504 | 0.801 | 0.754 | 0.666 | 0.583 |
| NCI-H838 | 1.02 | 1.06 | 1.04 | 0.406 | 0.461 | 0.428 | 0.425 | 0.469 | 0.474 | 0.441 | 0.5 | 0.432 | 0.45 | 0.853 | 0.766 | 0.815 | 0.592 | 0.572 |
| NCI-H1355 | 0.946 | 1.06 | 0.975 | 0.35 | 0.427 | 0.315 | 0.45 | 0.511 | 0.388 | 0.491 | 0.339 | 0.411 | 0.552 | 0.722 | 0.785 | 0.729 | 0.757 | 0.738 |
| NCI-H1395 | 0.942 | 1.04 | 0.946 | 0.709 | 0.688 | 0.693 | 0.642 | 0.686 | 0.648 | 0.641 | 0.581 | 0.563 | 0.642 | 0.483 | 0.469 | 0.469 | 0.519 | 0.437 |
| NCI-H1437 | 1.28 | 1.3 | 1.22 | 0.889 | 0.898 | 0.877 | 0.881 | 0.951 | 0.542 | 0.411 | 0.421 | 0.523 | 0.456 | 0.623 | 0.62 | 0.688 | 0.651 | 0.664 |
| NCI-H1650 | 1.44 | 1.23 | 1.18 | 0.7 | 0.806 |  | 0.73 | 0.634 | 0.616 | 0.656 | 0.215 | 0.652 | 0.556 | 0.802 | 0.89 | 0.875 | 0.827 | 0.774 |
| NCI-H1651 | 0.802 | 0.683 | 0.618 | 0.655 | 0.929 | 0.628 | 0.584 | 0.803 | 0.58 | 0.591 | 0.592 | 0.467 | 0.513 | 0.177 | 0.177 | 0.175 | 0.175 | 0.173 |
| NCI-H1666 | 0.993 | 1.02 | 0.814 | 0.932 | 0.836 | 0.945 | 0.845 | 0.861 | 0.554 | 0.424 | 0.437 | 0.505 | 0.404 | 0.734 | 0.83 | 0.824 | 0.747 | 0.776 |
| NCI-H1734 | 0.873 | 0.738 | 0.456 | 0.561 | 0.601 | 0.577 | 0.594 | 0.552 | 0.451 | 0.462 | 0.464 | 0.43 | 0.474 | 0.629 | 0.603 | 0.678 | 0.569 | 0.575 |
| NCI-H1755 | 0.928 | 0.867 | 0.944 | 0.711 | 0.68 | 0.685 | 0.71 | 0.759 | 0.384 | 0.487 | 0.454 | 0.435 | 0.479 | 0.898 | 0.854 | 0.933 | 0.914 | 0.923 |
| NCI-H1793 | 0.603 | 0.742 | 0.813 | 0.26 | 0.263 | 0.321 | 0.276 | 0.251 | 0.263 | 0.401 | 0.343 | 0.455 | 0.349 | 1.05 | 0.957 | 0.921 | 0.852 | 1.02 |
| NCI-H1915 | 1.1 | 1.12 | 0.82 | 0.463 | 0.652 | 0.639 | 0.617 | 0.63 | 0.79 | 1.05 | 0.922 | 0.914 | 0.999 | 0.256 | 0.287 | 0.25 | 0.255 | 0.257 |
| NCI-H1944 | 0.883 | 0.934 | 0.998 | 0.37 | 0.442 | 0.427 | 0.423 | 0.47 | 0.349 | 0.359 | 0.326 | 0.35 | 0.331 | 0.463 | 0.384 | 0.4 | 0.388 | 0.397 |
| NCI-H1975 | 0.92 | 0.928 | 0.566 | 0.676 | 0.811 | 0.772 | 0.834 | 0.752 | 0.273 | 0.307 | 0.292 | 0.335 | 0.307 | 0.763 | 0.847 | 0.887 | 0.744 | 0.873 |
